Laboratory results published in the supplement of paper PMC6045584.
± gives the standard deviation of the averaged measurements.

Key:
BLEOMYCIN = compound: Cc1c(N)nc([C@H](CC(N)=O)NC[C@H](N)C(N)=O)nc1C(=O)N[C@H](C(=O)N[C@H](C)[C@@H](O)[C@H](C)C(=O)N[C@H](C(=O)NCCc1nc(-c2nc(C(=O)NCCC[S+](C)C)cs2)cs1)[C@@H](C)O)[C@@H](OC1OC(CO)C(O)C(O)C1OC1OC(CO)C(O)C(OC(N)=O)C1O)c1cnc[nH]1 [BLEOMYCIN]; assay: surviving fraction relative to DMSO-only wells; higher = less growth inhibition; conditions: exposure time: 5 days
Procedure, shortened: (§1)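 Five days of continuous inhibitor exposure, at 0.5, 1, 5, 10, 50, 100, 500 and 1000 nM, followed a 24-hour period after log-phase tumour cell lines were seeded at 250–500 cells per well in 384-well plates. Surviving fraction was derived from CellTiter-Glo luminescence relative to the median of DMSO-only wells. Plates were read after 10 minutes at room temperature, and lines screened three times were kept only if replicate Pearson r >0.7 and median Z' >0.3.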

BEZ-235 = compound: Cn1c(=O)n(-c2ccc(C(C)(C)C#N)cc2)c2c3cc(-c4cnc5ccccc5c4)ccc3ncc21 [BEZ-235]; assay: as above; conditions: exposure time: 5 days
Procedure, shortened: as §1

Test System	surviving fraction (BLEOMYCIN; 0.5 nM)	surviving fraction (BLEOMYCIN; 1 nM)	surviving fraction (BLEOMYCIN; 5 nM)	surviving fraction (BLEOMYCIN; 10 nM)	surviving fraction (BLEOMYCIN; 50 nM)	surviving fraction (BLEOMYCIN; 100 nM)	surviving fraction (BLEOMYCIN; 500 nM)	surviving fraction (BLEOMYCIN; 1000 nM)	surviving fraction (BEZ-235; 0.5 nM)	surviving fraction (BEZ-235; 1 nM)	surviving fraction (BEZ-235; 5 nM)	surviving fraction (BEZ-235; 10 nM)	surviving fraction (BEZ-235; 50 nM)	surviving fraction (BEZ-235; 100 nM)	surviving fraction (BEZ-235; 500 nM)	surviving fraction (BEZ-235; 1000 nM)
HELA CERVIX	0.972 ± 0.026	0.932 ± 0.02	0.958 ± 0.024	0.963 ± 0.027	1.035 ± 0.0087	1.07 ± 0.061	0.803 ± 0.032	0.6 ± 0.062	1.05 ± 0.087	1.09 ± 0.069	1.112 ± 0.0048	1.02 ± 0.035	1.12 ± 0.061	1.2 ± 0.028	0.7 ± 0.019	0.4533 ± 0.0038
HOS BONE	0.936 ± 0.0079	0.926 ± 0.023	0.9497 ± 0.0038	0.94 ± 0.017	1 ± 0.035	0.984 ± 0.014	0.589 ± 0.043	0.291 ± 0.039	1.02 ± 0.034	1.05 ± 0.036	1.02 ± 0.014	1.01 ± 0.018	0.763 ± 0.034	0.591 ± 0.017	0.317 ± 0.015	0.285 ± 0.015
HOSMNG BONE	0.966 ± 0.025	0.983 ± 0.011	0.992 ± 0.015	1.01 ± 0.021	1.05 ± 0.048	1.03 ± 0.083	0.984 ± 0.029	0.845 ± 0.035	0.956 ± 0.014	0.96 ± 0.041	0.929 ± 0.022	0.958 ± 0.05	0.917 ± 0.044	0.772 ± 0.035	0.426 ± 0.0052	0.297 ± 0.012
HSSYII SYNOVIAL	0.797 ± 0.068	0.872 ± 0.045	0.768 ± 0.045	0.788 ± 0.017	0.6562 ± 0.0056	0.572 ± 0.029	0.224 ± 0.014	0.14 ± 0.0027	0.963 ± 0.072	0.921 ± 0.062	0.933 ± 0.012	0.88 ± 0.032	0.548 ± 0.017	0.38 ± 0.0082	0.165 ± 0.0072	0.129 ± 0.013
HT1080 SOFT TISSUE	1.001 ± 0.0036	0.965 ± 0.044	0.935 ± 0.018	0.886 ± 0.024	0.798 ± 0.071	0.7 ± 0.046	0.402 ± 0.0042	0.324 ± 0.012	0.985 ± 0.022	1.03 ± 0.011	1 ± 0.025	0.996 ± 0.055	0.6683 ± 0.0059	0.496 ± 0.021	0.221 ± 0.01	0.162 ± 0.0061
HU09 BONE	0.805 ± 0.015	0.923 ± 0.031	0.9 ± 0.084	0.831 ± 0.058	0.883 ± 0.083	0.761 ± 0.037	0.381 ± 0.013	0.246 ± 0.028	1.04 ± 0.18	1.07 ± 0.059	1.19 ± 0.053	1.12 ± 0.1	0.572 ± 0.025	0.416 ± 0.025	0.181 ± 0.013	0.134 ± 0.006
HUO3N1 BONE	0.898 ± 0.053	0.897 ± 0.0087	0.924 ± 0.016	0.908 ± 0.044	0.957 ± 0.031	0.892 ± 0.059	0.676 ± 0.0053	0.532 ± 0.025	0.992 ± 0.041	1.04 ± 0.042	0.946 ± 0.025	0.994 ± 0.039	0.838 ± 0.071	0.631 ± 0.031	0.341 ± 0.0053	0.258 ± 0.0061
JIMT1 BREAST	0.823 ± 0.056	0.82 ± 0.043	0.842 ± 0.019	0.874 ± 0.048	0.952 ± 0.059	0.927 ± 0.028	0.825 ± 0.058	0.698 ± 0.059	1.03 ± 0.031	0.992 ± 0.024	0.983 ± 0.0095	0.992 ± 0.019	0.732 ± 0.03	0.464 ± 0.04	0.21 ± 0.013	0.194 ± 0.009
